Data taken from ChEMBL document CHEMBL4483862, “Open-source discovery of chemical leads for next-generation chemoprotective antimalarials” (2018).

Test system: Plasmodium berghei
Experiment: Luciferase/luciferin-expressing antifolate-resistant parasites were used to infect a culture of HepG2 cells that were pre-incubated with compounds. Infected hepatocytes emit light due to the luciferase reaction. Assay results are presented as the percent inhibition of light emission compared to control. […]
Type: functional
Conditions: sporozoite; for IC90: read-out: LUCIFERASE INFECTION ASSAY - IC90
[1] = read-out: LUCIFERASE INFECTION ASSAY - IC50

| SMILES | IC90 [µM] | IC50 [1] [µM] | further results |
| --- | --- | --- | --- |
| COc1ccc(CC(=O)N2CCC3(CC2)OCc2ccccc2O3)cc1 | > 9.34 |  | IC50 (FFLUC_HILL_SLOPE 13.5, FFLUC_R_SQUARED 0.0841, HEPG2TOX_HILL_SLOPE 0.312, HEPG2TOX_R_SQUARED 0.567, read-out: LUCIFERASE INFECTION ASSAY - IC50): > 9.34 µM |
| CCCCCN1C(=O)/C(=N\n2c(-c3ccccc3F)cs/c2=N\C2CCCCC2)c2ccccc21 | > 10 |  | IC50 (FFLUC_HILL_SLOPE 1.7, FFLUC_R_SQUARED 0.73, PBLUC_HILL_SLOPE 13.5, PBLUC_R_SQUARED 0.29, read-out: LUCIFERASE INFECTION ASSAY - IC50): 8.58 µM |
| Cc1ccc(C(=O)OC(C)C(=O)N2CCCC2)cc1S(=O)(=O)N1CCCCC1 (configuration not stated) | 1.37 |  | IC50 (PBLUC_HILL_SLOPE 7.98, PBLUC_R_SQUARED 0.937, read-out: LUCIFERASE INFECTION ASSAY - IC50): 1.04 µM |
| COc1cc(NC(=O)c2ccc([N+](=O)[O-])o2)cc(C(F)(F)F)c1 | > 9.99 | > 9.99 |  |
| Cc1ccc(O)c(-c2cc(C(=O)Nc3ccccc3C(F)(F)F)[nH]n2)c1 | > 9.13 | > 9.13 |  |
| N#Cc1cccc(-c2nnco2)c1 | > 10 | > 10 |  |
| CCCNC(=O)c1c(NC(=O)c2cccc(Cl)c2)nc2ccccn12 | 1.11 |  | IC50 (FFLUC_HILL_SLOPE 126, FFLUC_R_SQUARED 0.738, HEPG2TOX_HILL_SLOPE 0.804, HEPG2TOX_R_SQUARED 0.952, PBLUC_HILL_SLOPE 15.4, PBLUC_R_SQUARED 0.753, read-out: LUCIFERASE INFECTION ASSAY - IC50): 0.96 µM |
| COc1ccc(Nc2ccn3ncc(-c4ccc(OC)c(OC)c4)c3n2)cn1 | 1.73 |  | IC50 (HEPG2TOX_HILL_SLOPE 1.44, HEPG2TOX_R_SQUARED 0.951, PBLUC_HILL_SLOPE 2.71, PBLUC_R_SQUARED 0.798, read-out: LUCIFERASE INFECTION ASSAY - IC50): 0.768 µM |
| CSC1=C(C#N)C(=O)NC(c2ccc(Cl)cc2Cl)S1 (configuration not stated) | > 9.96 | > 9.96 |  |
| CC1(c2ccc3ccccc3c2)NC(=O)N(CC(=O)NC(CN2CCOCC2)c2ccccc2)C1=O (configuration not stated) | > 10 | > 10 |  |
| CCC(C)NC(=O)c1c(NC(=O)c2cccc(F)c2)nc2ccc(C)cn12 (configuration not stated) | 2.91 |  | IC50 (FFLUC_HILL_SLOPE 0.281, FFLUC_R_SQUARED 0.0242, HEPG2TOX_HILL_SLOPE 2.05, HEPG2TOX_R_SQUARED 0.911, PBLUC_HILL_SLOPE 3.14, PBLUC_R_SQUARED 0.667, read-out: LUCIFERASE INFECTION ASSAY - IC50): 1.45 µM |
| CN1CCCN(c2ccc(NC(=O)OCC(F)(F)F)cc2F)CC1 | > 10 | > 10 |  |
| Cc1cc2occ(CC(=O)Nc3ccc(N4CCN(C)CC4)nc3)c2cc1C(C)C | > 10 | 9.57 |  |
| COc1ccc(NC(=O)c2cc(-c3ccccc3)n(-c3ccccc3)c2C)cc1 | 4.38 |  | IC50 (HEPG2TOX_HILL_SLOPE 0.976, HEPG2TOX_R_SQUARED 0.937, PBLUC_HILL_SLOPE 1.32, PBLUC_R_SQUARED 0.59, read-out: LUCIFERASE INFECTION ASSAY - IC50): 0.834 µM |
| C#CCOc1ccc(CNCCc2ccccc2)cc1OCC | > 9.54 |  | IC50 (PBLUC_HILL_SLOPE 6.85, PBLUC_R_SQUARED 0.0184, read-out: LUCIFERASE INFECTION ASSAY - IC50): > 9.54 µM |
| O=C(OCc1cnn(-c2ccccc2)c1)c1cc([N+](=O)[O-])ccc1N1CCCC1 | > 10 |  | IC50 (HEPG2TOX_HILL_SLOPE 1.67, HEPG2TOX_R_SQUARED 0.935, PBLUC_HILL_SLOPE 0.776, PBLUC_R_SQUARED 0.413, read-out: LUCIFERASE INFECTION ASSAY - IC50): 9.4 µM |
| CO[C@H]1[C@H](O)[C@H](O[C@H]2CC[C@]3(C)C4CC[C@]5(C)C(C6=CC(=O)OC6)CC[C@]5(O)C4CC[C@@H]3C2)O[C@@H](C)[C@@H]1O (some centres not stated) | 0.138 |  |  |
| Cc1ccc2c(Cl)cc(Cl)c(OCC(=O)NC3CCCCC3C)c2n1 (configuration not stated) | > 10 | > 10 |  |
| CCOC(=O)c1c(C)[nH]c(/C=C2/C(=O)N(c3ccccc3)N=C2C)c1Cc1cccc(Cl)c1 | > 10 | > 10 |  |
| O=C(CN1C(=O)C(=O)N(C2CCCC2)C1=O)Nc1cc(Cl)ccc1[N+](=O)[O-] | > 10 | > 10 |  |
| Cn1cc(CN2CCC3(CC2)C(=O)N(CCCc2cccnc2)C(=O)N3Cc2ccccc2)c2ccccc21 | > 6.33 |  | IC50 (PBLUC_HILL_SLOPE 1.35, PBLUC_R_SQUARED 0.738, read-out: LUCIFERASE INFECTION ASSAY - IC50): 3.23 µM |
| Cn1c(Nc2cccc(C(F)(F)F)c2)nc2cnc(-c3ccoc3)cc21 | > 10 | > 10 |  |

| SMILES | IC90 [µM] | IC50 [1] [µM] | further results |
| --- | --- | --- | --- |
| O=C(Nc1ccccc1)N1CCC(C(=O)N2CCN(C(=O)c3ccccc3Cl)CC2)CC1 | > 10 | > 10 |  |
| COc1ccc(Cc2nnc(SCC(=O)/C(C#N)=C(\C)N)n2-c2ccc(Oc3ccccc3)cc2)cc1OC | > 10 | > 10 |  |
| O=C(NNc1cc(C(F)(F)F)nc2ccccc12)Nc1ccc(Cl)cc1 | > 8.67 | > 8.67 |  |
| CN(C)C(=O)c1cccc(-c2cn3c(-c4ccc(N(C)C)cc4)cnc3cn2)c1 | 7.57 | 4.36 |  |
| O=C1Nc2ccc(Cl)cc2/C1=C/c1ccc(-c2ccccc2)cc1 | > 10 |  | IC50 (FFLUC_HILL_SLOPE 2.74, FFLUC_R_SQUARED 0.354, PBLUC_HILL_SLOPE 5.72, PBLUC_R_SQUARED 0.824, read-out: LUCIFERASE INFECTION ASSAY - IC50): 8.45 µM |
| Cc1nc2nc(-c3ccccc3)nn2c(N2CCCC2)c1Cc1ccccc1 | > 8.93 | 3.28 |  |
| O=C(CSc1nnc(-c2ccccc2)o1)Nc1ncc(Cl)cc1Cl | 1.2 |  | IC50 (HEPG2TOX_HILL_SLOPE 0.667, HEPG2TOX_R_SQUARED 0.783, PBLUC_HILL_SLOPE 16.1, PBLUC_R_SQUARED 0.672, read-out: LUCIFERASE INFECTION ASSAY - IC50): 1.05 µM |
| O=C(Nc1cccc(Cl)c1)OCc1ccccc1F | > 11.8 | > 11.8 |  |
| CCOc1c(Br)cc(/C=C2/C(=O)N(C)c3ccccc32)cc1OC | > 10 |  | IC50 (HEPG2TOX_HILL_SLOPE 13, HEPG2TOX_R_SQUARED 0.388, read-out: LUCIFERASE INFECTION ASSAY - IC50): > 10 µM |
| O=S(=O)(c1ccccc1)N1[C@@H]2CC[C@@H](C2)[C@H]1c1nc2c(OCCC3CCCCC3)cccc2[nH]1 | > 10 |  | IC50 (FFLUC_HILL_SLOPE 8.97, FFLUC_R_SQUARED 0.445, PBLUC_HILL_SLOPE 2.11, PBLUC_R_SQUARED 0.35, read-out: LUCIFERASE INFECTION ASSAY - IC50): 6.12 µM |
| Fc1ccc(-c2nc3ccnc(Nc4ccccc4)c3[nH]2)cc1F | > 10 |  | IC50 (PBLUC_HILL_SLOPE 2.79, PBLUC_R_SQUARED 0.219, read-out: LUCIFERASE INFECTION ASSAY - IC50): 5.41 µM |
| OCc1cccc(-c2cnc3ccc(-c4cccc(Oc5ccccc5)c4)nn23)c1 | 4.64 |  | IC50 (HEPG2TOX_HILL_SLOPE 3.57, HEPG2TOX_R_SQUARED 0.188, PBLUC_HILL_SLOPE 2.99, PBLUC_R_SQUARED 0.337, read-out: LUCIFERASE INFECTION ASSAY - IC50): 2.23 µM |
| Cc1cc(C(=O)NCc2nnc3ccccn23)c(C)n1C1CCCCC1 | 6.61 |  | IC50 (FFLUC_HILL_SLOPE 1.4, FFLUC_R_SQUARED 0.0106, PBLUC_HILL_SLOPE 1.41, PBLUC_R_SQUARED 0.709, read-out: LUCIFERASE INFECTION ASSAY - IC50): 1.39 µM |
| NC(=O)c1cc(-c2ccccc2)sc1NC(=O)Nc1ccccc1F | > 10 | 9.4 |  |
| COc1ccc(-c2cc(-c3cccc(NS(C)(=O)=O)c3)cnc2N)c(OC)c1 | 4.29 |  | IC50 (HEPG2TOX_HILL_SLOPE 1.15, HEPG2TOX_R_SQUARED 0.874, PBLUC_HILL_SLOPE 1.81, PBLUC_R_SQUARED 0.713, read-out: LUCIFERASE INFECTION ASSAY - IC50): 1.27 µM |
| CCOc1ccc(OCC)c(S(=O)(=O)Oc2cccc3ccc(C)nc23)c1 | > 8.52 |  | IC50 (HEPG2TOX_HILL_SLOPE 2.15, HEPG2TOX_R_SQUARED 0.762, PBLUC_HILL_SLOPE 2.2, PBLUC_R_SQUARED 0.11, read-out: LUCIFERASE INFECTION ASSAY - IC50): 7.25 µM |
| Fc1cccc(-c2nc3ccnc(NCc4ccccc4)c3[nH]2)c1 | 4.56 |  | IC50 (HEPG2TOX_HILL_SLOPE 6.86, HEPG2TOX_R_SQUARED 0.629, PBLUC_HILL_SLOPE 1.32, PBLUC_R_SQUARED 0.696, read-out: LUCIFERASE INFECTION ASSAY - IC50): 0.868 µM |
| Cc1cccc(C(=O)NCC(=O)Nc2ncc(C)s2)c1 | > 10 |  | IC50 (HEPG2TOX_HILL_SLOPE 123, HEPG2TOX_R_SQUARED 0.298, PBLUC_HILL_SLOPE 16, PBLUC_R_SQUARED 0.209, read-out: LUCIFERASE INFECTION ASSAY - IC50): 9.16 µM |
| CCOC(=O)C1CCN(c2cc(C(F)(F)F)nc3c(F)cccc23)CC1 | > 8.91 |  | IC50 (FFLUC_HILL_SLOPE 11, FFLUC_R_SQUARED 0.219, read-out: LUCIFERASE INFECTION ASSAY - IC50): > 8.91 µM |
| Cc1c(Cl)c(CN2C(=O)C(=O)N(Cc3cccs3)C2=O)nc2ccccc12 | > 10 | > 10 |  |
| COc1ccc(OC)c(/C=C/C(=O)N2C(=O)c3cccc(N)c3C2=O)c1 | > 10 |  | IC50 (HEPG2TOX_HILL_SLOPE 4.32, HEPG2TOX_R_SQUARED 0.934, PBLUC_HILL_SLOPE 15.3, PBLUC_R_SQUARED 0.377, read-out: LUCIFERASE INFECTION ASSAY - IC50): 9.46 µM |
| CC(C(=O)Nc1cc([N+](=O)[O-])ccc1Cl)N(C)CC(=O)Nc1ccc(Cl)c(C(F)(F)F)c1 (configuration not stated) | > 10 |  | IC50 (HEPG2TOX_HILL_SLOPE 0.377, HEPG2TOX_R_SQUARED 0.303, read-out: LUCIFERASE INFECTION ASSAY - IC50): > 10 µM |
